The values below come from patent publication US20260007680A1, “Compounds and Their Use as PDE4 Activators” (Mironid Limited, priority 2022, published 2026).

This assay concerns m-IMCD3 cells. Nature of the assay: Inhibition of PGE2-stimulated in vitro cyst formation in 3D culture of m-IMCD3 cells (Experiment 4). The following applies: for activity at 10 µM: Mus musculus, mIMCD3, 144 h, 10 μM test compound, mean cyst area compared to 100% for (DMSO + PGE2) and 0% for DMSO control, read-out: % Cyst area* after incubation with 10 μM test compound. It is filed as cell-based, mouse. How it is done:
HEK 293 and MDCK cells (Public Health England, Cell Culture Collections) were maintained in Dulbecco's Modified Eagle's Medium (DMEM) supplemented with 10% (v/v) fetal bovine serum (FBS) (Seralab), 2 mM L-glutamine and 100 U/ml penicillin streptomycin cocktail (ThermoFisher); termed complete media. Clonal HEK 293 cell lines were maintained in complete media supplemented with 0.6 mg/mL G418 (Enzo Life Sciences). Mouse inner medullary collecting duct (m-IMCD3) cells [American Type Culture Collection (ATCC)] were maintained in media consisting of DMEM/Hams F-12 50/50 Mix (DMEM F12; Corning) supplemented with penicillin streptomycin cocktail (100 U/ml) and FBS (10% v/v) (DMEM F12-10% FBS).
The mouse Inner Medullary Collecting Duct cell line (m-IMCD3) spontaneously forms cystic spheroids in 3D culture with a Type 1 collagen/Matrigel extracellular matrix. This process can be stimulated with agents which raise intracellular cAMP and is used as an in vitro model for the formation of cystic structures in the kidneys of patients with ADPKD.
Rat Collagen I (Fisher Scientific) is prepared on ice by neutralising with 1 M NaOH and diluting with a 2×volume of DMEM/F12+10% FBS. This is mixed 1:1.1 with ice cold Matrigel (Corning) for coating plates (coating mix), and 1:0.93 with Matrigel for cell plating (plating mix).
The assay is conducted in the wells of a 96-well plate culture dish using a total volume of 130 μL of collagen/Matrigel/DMEM F12-10% FBS suspension in growth media for each matrix plug per individual well. Initially, 30 μL of collagen/Matrigel/DMEM F12-10% FBS (coating mix) is added into the well of a 96 well plate and the collagen is set to a gel by incubating at 37° C. for at least 15 minutes. A second layer of 100 μL collagen/Matrigel suspension (plating mix) containing m-IMCD3 cells (2.75×10^6 m-IMCD3 cells per 96-well plate) is layered over the coating mix and the collagen/Matrigel/cell mix again set to a gel by incubating at 37° C. Cell cultures are maintained at 37° C. in an atmosphere of 5% CO2, 95% air.
Between 18 and 24 h after plating, test compound(s) as DMSO stock solutions [0.1% (v/v) final DMSO concentration] and PGE2 (100 nM final concentration) in DMEM F12-10% FBS are added in quadruplicate wells per condition. Media, together with the test compound and PGE2 are replenished after 2 or 3 days. After 6 days of culture z stack images of the wells are captured using the Nikon Eclipse Ti2-E microscope. Nikon General Analysis software is used to measure the following parameters in each well: the mean cyst area, the number of cysts, and the total cyst area.
PDE4 long form activators inhibited in vitro cyst formation in m-IMCD3 cells. Data are shown in FIG. 2 and Table 4 as mean cyst area (%), compared to 100% for (DMSO+PGE2) and 0% for DMSO control.

Consider `O=C(NC1CCCC1)c1cnc2cc(N3C4CCC3CNC4)sc2c1` [Example 121, 2-(3,8-diazabicyclo[3.2.1]octan-8-yl)-N-cyclopentylthieno[3,2-b]pyridine-6-carboxamide], for which the activity at 10 µM stood at 3%.

Consider `O=C(N[C@H]1CCOc2ccccc21)c1ccc2oc(N3CCN(CCO)CC3)nc2c1` [Example 106, (S)—N-(chroman-4-yl)-2-(4-(2-hydroxyethyl)piperazin-1-yl)benzo[d]oxazole-5-carboxamide], for which the activity at 10 µM was -3%. With `O=C(NCc1ccc(F)cc1)c1cnc2cc(C3CCNCC3)nn2c1` [Example 89, N-(4-fluorobenzyl)-2-(piperidin-4-yl)pyrazolo[1,5-a]pyrimidine-6-carboxamide], the activity at 10 µM is -3%.

With `CCN1CCC(c2nc3ccc(C(=O)N[C@H]4CCOc5ccccc54)cn3n2)CC1` [Example 51, (S)—N-(chroman-4-yl)-2-(1-ethylpiperidin-4-yl)-[1,2,4]triazolo[1,5-a]pyridine-6-carboxamide], the activity at 10 µM amounted to 6%. Under “3D culture”, the “inhibition of PGE2-stimulated cyst formation in m-IMCD3 cells (FIG. 2, text)” value is reported as “concentration-dependent inhibition”. Regarding `CCN1CCN(c2nc3ccc(C(=O)N[C@H]4CCOc5ccccc54)cn3n2)CC1` [Example 45, (S)—N-(chroman-4-yl)-2-(4-ethylpiperazin-1-yl)-[1,2,4]triazolo[1,5-a]pyridine-6-carboxamide], the activity at 10 µM was 15%.

As to `Cn1c(N2CCNCC2)nc2ccc(C(=O)N[C@H]3CCOc4ccccc43)cc21` [Example 31, (S)—N-(chroman-4-yl)-1-methyl-2-(piperazin-1-yl)-1H-benzo[d]imidazole-6-carboxamide], the activity at 10 µM worked out at 3%. Consider `O=C(N[C@H]1CCc2ccccc21)c1ccn2nc(N3CCNCC3)nc2c1` [Example 62, (S)—N-(2,3-dihydro-1H-inden-1-yl)-2-(piperazin-1-yl)-[1,2,4]triazolo[1,5-a]pyridine-7-carboxamide], for which the activity at 10 µM came to 0%. On the same count and under the same terms, then `CN1CCC(c2cc3ncc(C(=O)N[C@H]4CCOc5ccccc54)cn3n2)CC1` [Example 88, (S)—N-(chroman-4-yl)-2-(1-methylpiperidin-4-yl)pyrazolo[1,5-a]pyrimidine-6-carboxamide], with 15%; and `CCN1CCN(c2cc3ncc(C(=O)NC4CCCCC4)cn3n2)CC1` [Example 73, N-cyclohexyl-2-(4-ethylpiperazin-1-yl)pyrazolo[1,5-a]pyrimidine-6-carboxamide], with -3%; and `O=C(N[C@H]1CCc2ccccc21)c1ccc2nc(N3CCNCC3)nn2c1` [Example 48, (S)—N-(2,3-dihydro-1H-inden-1-yl)-2-(piperazin-1-yl)-[1,2,4]triazolo[1,5-a]pyridine-6-carboxamide], with 22%. Same read-out and setting: next, `CCN1CCN(c2cc3ncc(C(=O)N[C@H]4CCOc5ccccc54)cn3n2)CC1` [Example 70, (S)—N-(chroman-4-yl)-2-(4-ethylpiperazin-1-y)pyrazolo[1,5-a]pyrimidine-6-carboxamide]: 5%; `Cn1c(-c2cccnc2)nc2cc(C(=O)N[C@H]3CCOc4ccccc43)ccc21` [Example 24, (S)—N-(chroman-4-yl)-1-methyl-2-(pyridin-3-yl)-1H-benzo[d]imidazole-5-carboxamide]: 21%; `CCN1CCN(c2nc3cc(C(=O)N[C@H]4CCOc5ccccc54)ccn3n2)CC1` [Example 60, (S)—N-(chroman-4-yl)-2-(4-ethylpiperazin-1-yl)-[1,2,4]triazolo[1,5-a]pyridine-7-carboxamide]: 18%. On the same count and under the same terms, then `Cc1ncccc1-c1nc2cc(C(=O)N[C@H]3CCOc4ccccc43)ccc2[nH]1` [Example 3, (S)—N-(chroman-4-yl)-2-(2-methylpyridin-3-yl)-1H-benzo[d]imidazole-5-carboxamide], with 20%. Take `Cc1c(C(=O)NC2CCC(F)(F)CC2)cnc2cc(C3CCNCC3)nn12` [Example 91, N-(4,4-difluorocyclohexyl)-7-methyl-2-(piperidin-4-yl)pyrazolo[1,5-a]pyrimidine-6-carboxamide]: the activity at 10 µM was determined as 5%.
